According to ChEMBL document CHEMBL3804797, “Discovery of Aryl Sulfonamides as Isoform-Selective Inhibitors of NaV1.7 with Efficacy in Rodent Pain Models” (ACS Med Chem Lett, 2016):
One block for each compound: values may come before it. Activity calls are given as the source filed them. The rule behind the calls is not given here.

How the values were obtained:
hERG (KCNH2) = hERG (KCNH2) (Homo sapiens, UniProt Q12809); experiment: Displacement of [3H] astemizole from human ERG channel at 5 uM; conditions: probe [3H] astemizole
[1] = molecular target: Sodium channel protein type 9 subunit alpha (Rattus norvegicus, UniProt O08562); experiment: Inhibition of rat Nav1.7 channel by automated voltage clamp analysis
Homo sapiens = species: Homo sapiens; experiment: Selectivity ratio of IC50 for human Nav1.5 to IC50 for human Nav1.7
[2] = Selectivity ratio of IC50 for rat Nav1.7 to IC50 for human Nav1.7
[3] = molecular target: Sodium channel protein type 5 subunit alpha (Homo sapiens, UniProt Q14524); experiment: Inhibition of full length human Nav1.5 channel expressed in HEK cells co-expressing human sodium channel subunit beta1 at holding potential -60 mV by automated voltage clamp analysis; type: cell-based, HEK293
[4] = molecular target: Sodium channel protein type 4 subunit alpha (Homo sapiens, UniProt P35499); experiment: Inhibition of full length human Nav1.4 channel expressed in HEK cells co-expressing human sodium channel subunit beta1 by automated voltage clamp analysis; type: cell-based, HEK293
[5] = molecular target: Sodium channel protein type 10 subunit alpha (Homo sapiens, UniProt Q9Y5Y9); experiment: Inhibition of full length human Nav1.8 channel expressed in HEK cells co-expressing human sodium channel subunit beta3 at holding potential -20 mV by manual voltage clamp analysis; type: cell-based, HEK293
[6] = molecular target: Sodium channel protein type 2 subunit alpha (Homo sapiens, UniProt Q99250); experiment: Inhibition of full length human Nav1.2 channel expressed in HEK cells co-expressing human sodium channel subunit beta1 at holding potential -35 mV by automated voltage clamp analysis; type: cell-based, HEK293
[7] = molecular target: Sodium channel protein type 3 subunit alpha (Homo sapiens, UniProt Q9NY46); experiment: Inhibition of full length human Nav1.3 channel expressed in HEK cells co-expressing human sodium channel subunit beta1 at holding potential -50 mV by automated voltage clamp analysis; type: cell-based, HEK293
[8] = molecular target: Sodium channel protein type 1 subunit alpha (Homo sapiens, UniProt P35498); experiment: Inhibition of full length human Nav1.1 channel expressed in HEK cells co-expressing human sodium channel subunit beta1 at holding potential -40 mV by automated voltage clamp analysis; type: cell-based, HEK293
[9] = molecular target: Sodium channel protein type 8 subunit alpha (Homo sapiens, UniProt Q9UQD0); experiment: Inhibition of full length human Nav1.6 channel expressed in HEK cells co-expressing human sodium channel subunit beta1 at holding potential -35 mV by automated voltage clamp analysis; type: cell-based, HEK293
[10] = molecular target: Sodium channel protein type 9 subunit alpha (Homo sapiens, UniProt Q15858); experiment: Inhibition of full length human Nav1.7 channel expressed in HEK cells co-expressing human sodium channel subunit beta1 at holding potential -60 mV by automated voltage clamp analysis; type: cell-based, HEK293
Rattus norvegicus [11] = experiment: Analgesic activity in rat assessed as inhibition of aconitine-induced pain response at 30 mg/kg, ip dosed 2 hrs prior to aconitine challenge measured over 60 mins by automated nociception analysis relative to control; type: functional, organism-based
Rattus norvegicus [12] = experiment: Analgesic activity in rat assessed as delay in onset of formalin-induced pain response at 100 mg/kg,ip dosed 2 hrs prior to formalin challenge measured over 60 mins by automated nociception analysis; type: functional, organism-based
Rattus norvegicus [13] = experiment: Analgesic activity in ip dosed rat assessed as inhibition of formalin-induced late phase pain response dosed 2 hrs prior to formalin challenge measured over 10 to 40 mins by automated nociception analysis; type: functional, organism-based
Rattus norvegicus [14] = experiment: Analgesic activity in rat assessed as inhibition of formalin-induced late phase pain response at 30 mg/kg,ip dosed 2 hrs prior to formalin challenge measured over 10 to 40 mins by automated nociception analysis; type: functional, organism-based
Mus musculus [15] = experiment: Analgesic activity in ip dosed mouse assessed as reduction in CFA-induced cold allodynia administered 1 hr prior to acetone challenge on day 2 post CFA injection measured for 120 secs relative to vehicle control; type: functional, organism-based
Mus musculus [16] = experiment: Analgesic activity in mouse assessed as reduction in CFA-induced cold allodynia at 10 mg/kg, ip administered 1 hr prior to acetone challenge on day 2 post CFA injection measured for 120 secs relative to vehicle control; type: functional, organism-based

hERG (KCNH2), sequence (Q12809 whole entry): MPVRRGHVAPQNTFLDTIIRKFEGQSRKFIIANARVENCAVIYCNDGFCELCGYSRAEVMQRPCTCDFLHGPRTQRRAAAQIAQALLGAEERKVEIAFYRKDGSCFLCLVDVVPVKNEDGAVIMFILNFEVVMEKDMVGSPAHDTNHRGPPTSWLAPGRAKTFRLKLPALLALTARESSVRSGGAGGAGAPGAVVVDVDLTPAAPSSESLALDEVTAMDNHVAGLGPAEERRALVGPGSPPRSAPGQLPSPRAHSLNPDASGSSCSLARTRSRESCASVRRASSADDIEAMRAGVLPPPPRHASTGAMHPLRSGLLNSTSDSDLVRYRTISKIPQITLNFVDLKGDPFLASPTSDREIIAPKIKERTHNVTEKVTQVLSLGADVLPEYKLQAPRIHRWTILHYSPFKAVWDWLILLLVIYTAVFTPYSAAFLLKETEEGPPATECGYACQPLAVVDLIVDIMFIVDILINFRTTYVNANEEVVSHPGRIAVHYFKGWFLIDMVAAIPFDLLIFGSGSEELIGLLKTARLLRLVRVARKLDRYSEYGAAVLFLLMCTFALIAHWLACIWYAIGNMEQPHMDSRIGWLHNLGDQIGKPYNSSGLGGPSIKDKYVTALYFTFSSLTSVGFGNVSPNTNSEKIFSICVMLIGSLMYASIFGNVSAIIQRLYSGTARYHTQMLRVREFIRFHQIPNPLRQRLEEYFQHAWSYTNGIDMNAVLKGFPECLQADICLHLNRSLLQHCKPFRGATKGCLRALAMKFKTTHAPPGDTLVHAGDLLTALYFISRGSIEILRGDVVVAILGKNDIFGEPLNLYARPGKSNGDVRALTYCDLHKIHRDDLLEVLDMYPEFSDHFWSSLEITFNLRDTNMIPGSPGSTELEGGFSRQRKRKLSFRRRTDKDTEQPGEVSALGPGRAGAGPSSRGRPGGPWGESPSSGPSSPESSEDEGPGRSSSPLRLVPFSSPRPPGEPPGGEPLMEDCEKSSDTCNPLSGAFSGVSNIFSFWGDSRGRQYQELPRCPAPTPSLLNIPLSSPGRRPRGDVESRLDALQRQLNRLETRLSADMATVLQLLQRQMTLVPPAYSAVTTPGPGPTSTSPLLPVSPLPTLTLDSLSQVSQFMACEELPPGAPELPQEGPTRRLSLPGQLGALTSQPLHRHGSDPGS
Sodium channel protein type 5 subunit alpha, sequence (Q14524 whole entry): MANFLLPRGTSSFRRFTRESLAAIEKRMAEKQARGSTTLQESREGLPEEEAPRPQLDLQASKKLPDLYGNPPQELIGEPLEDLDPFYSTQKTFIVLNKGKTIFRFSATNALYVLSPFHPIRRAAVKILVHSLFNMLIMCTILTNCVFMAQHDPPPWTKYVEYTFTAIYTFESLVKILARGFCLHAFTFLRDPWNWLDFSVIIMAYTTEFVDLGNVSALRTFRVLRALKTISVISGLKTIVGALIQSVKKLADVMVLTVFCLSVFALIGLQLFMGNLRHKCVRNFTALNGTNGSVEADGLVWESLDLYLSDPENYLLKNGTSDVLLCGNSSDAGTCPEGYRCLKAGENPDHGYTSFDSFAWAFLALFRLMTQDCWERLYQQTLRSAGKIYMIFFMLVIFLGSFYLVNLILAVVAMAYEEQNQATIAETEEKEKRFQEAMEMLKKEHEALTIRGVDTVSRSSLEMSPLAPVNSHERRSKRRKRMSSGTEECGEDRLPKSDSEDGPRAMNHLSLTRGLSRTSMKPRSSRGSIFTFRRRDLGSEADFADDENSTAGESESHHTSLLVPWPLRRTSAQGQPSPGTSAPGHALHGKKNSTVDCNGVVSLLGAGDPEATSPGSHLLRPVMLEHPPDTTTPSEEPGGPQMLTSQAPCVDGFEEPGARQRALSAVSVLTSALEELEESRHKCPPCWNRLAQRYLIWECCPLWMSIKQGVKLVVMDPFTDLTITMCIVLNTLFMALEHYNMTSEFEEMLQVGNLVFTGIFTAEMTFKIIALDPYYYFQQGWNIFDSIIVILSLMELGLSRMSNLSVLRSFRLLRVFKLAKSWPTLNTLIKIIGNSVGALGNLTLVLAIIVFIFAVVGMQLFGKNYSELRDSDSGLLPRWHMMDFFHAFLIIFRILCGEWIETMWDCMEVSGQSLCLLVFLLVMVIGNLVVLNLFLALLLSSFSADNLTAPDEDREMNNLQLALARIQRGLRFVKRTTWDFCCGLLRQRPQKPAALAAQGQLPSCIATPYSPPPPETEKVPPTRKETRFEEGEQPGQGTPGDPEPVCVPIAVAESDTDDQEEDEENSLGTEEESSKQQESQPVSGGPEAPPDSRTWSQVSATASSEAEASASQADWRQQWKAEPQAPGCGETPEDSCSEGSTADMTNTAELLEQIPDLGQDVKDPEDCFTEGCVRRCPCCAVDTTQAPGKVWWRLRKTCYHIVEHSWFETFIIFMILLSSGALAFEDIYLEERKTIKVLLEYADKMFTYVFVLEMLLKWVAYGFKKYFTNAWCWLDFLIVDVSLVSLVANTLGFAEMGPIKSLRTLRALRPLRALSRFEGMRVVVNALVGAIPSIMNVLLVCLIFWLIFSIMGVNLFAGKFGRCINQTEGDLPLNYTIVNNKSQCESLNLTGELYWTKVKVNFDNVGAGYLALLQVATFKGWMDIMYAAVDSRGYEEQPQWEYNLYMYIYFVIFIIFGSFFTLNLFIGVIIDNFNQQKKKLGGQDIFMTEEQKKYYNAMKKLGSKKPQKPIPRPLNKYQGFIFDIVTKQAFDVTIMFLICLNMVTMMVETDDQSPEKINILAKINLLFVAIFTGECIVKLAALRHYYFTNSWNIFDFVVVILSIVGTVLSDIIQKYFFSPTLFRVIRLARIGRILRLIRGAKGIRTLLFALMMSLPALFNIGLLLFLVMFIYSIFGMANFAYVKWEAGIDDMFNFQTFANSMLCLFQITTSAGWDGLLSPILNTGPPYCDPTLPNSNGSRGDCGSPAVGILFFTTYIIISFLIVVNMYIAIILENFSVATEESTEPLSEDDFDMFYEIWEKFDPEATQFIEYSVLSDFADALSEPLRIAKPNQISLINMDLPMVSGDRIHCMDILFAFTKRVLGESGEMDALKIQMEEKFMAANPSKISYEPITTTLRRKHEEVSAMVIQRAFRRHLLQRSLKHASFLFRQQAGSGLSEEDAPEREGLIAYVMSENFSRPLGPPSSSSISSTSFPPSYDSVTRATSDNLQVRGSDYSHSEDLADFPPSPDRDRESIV
Sodium channel protein type 2 subunit alpha, sequence (Q99250 whole entry): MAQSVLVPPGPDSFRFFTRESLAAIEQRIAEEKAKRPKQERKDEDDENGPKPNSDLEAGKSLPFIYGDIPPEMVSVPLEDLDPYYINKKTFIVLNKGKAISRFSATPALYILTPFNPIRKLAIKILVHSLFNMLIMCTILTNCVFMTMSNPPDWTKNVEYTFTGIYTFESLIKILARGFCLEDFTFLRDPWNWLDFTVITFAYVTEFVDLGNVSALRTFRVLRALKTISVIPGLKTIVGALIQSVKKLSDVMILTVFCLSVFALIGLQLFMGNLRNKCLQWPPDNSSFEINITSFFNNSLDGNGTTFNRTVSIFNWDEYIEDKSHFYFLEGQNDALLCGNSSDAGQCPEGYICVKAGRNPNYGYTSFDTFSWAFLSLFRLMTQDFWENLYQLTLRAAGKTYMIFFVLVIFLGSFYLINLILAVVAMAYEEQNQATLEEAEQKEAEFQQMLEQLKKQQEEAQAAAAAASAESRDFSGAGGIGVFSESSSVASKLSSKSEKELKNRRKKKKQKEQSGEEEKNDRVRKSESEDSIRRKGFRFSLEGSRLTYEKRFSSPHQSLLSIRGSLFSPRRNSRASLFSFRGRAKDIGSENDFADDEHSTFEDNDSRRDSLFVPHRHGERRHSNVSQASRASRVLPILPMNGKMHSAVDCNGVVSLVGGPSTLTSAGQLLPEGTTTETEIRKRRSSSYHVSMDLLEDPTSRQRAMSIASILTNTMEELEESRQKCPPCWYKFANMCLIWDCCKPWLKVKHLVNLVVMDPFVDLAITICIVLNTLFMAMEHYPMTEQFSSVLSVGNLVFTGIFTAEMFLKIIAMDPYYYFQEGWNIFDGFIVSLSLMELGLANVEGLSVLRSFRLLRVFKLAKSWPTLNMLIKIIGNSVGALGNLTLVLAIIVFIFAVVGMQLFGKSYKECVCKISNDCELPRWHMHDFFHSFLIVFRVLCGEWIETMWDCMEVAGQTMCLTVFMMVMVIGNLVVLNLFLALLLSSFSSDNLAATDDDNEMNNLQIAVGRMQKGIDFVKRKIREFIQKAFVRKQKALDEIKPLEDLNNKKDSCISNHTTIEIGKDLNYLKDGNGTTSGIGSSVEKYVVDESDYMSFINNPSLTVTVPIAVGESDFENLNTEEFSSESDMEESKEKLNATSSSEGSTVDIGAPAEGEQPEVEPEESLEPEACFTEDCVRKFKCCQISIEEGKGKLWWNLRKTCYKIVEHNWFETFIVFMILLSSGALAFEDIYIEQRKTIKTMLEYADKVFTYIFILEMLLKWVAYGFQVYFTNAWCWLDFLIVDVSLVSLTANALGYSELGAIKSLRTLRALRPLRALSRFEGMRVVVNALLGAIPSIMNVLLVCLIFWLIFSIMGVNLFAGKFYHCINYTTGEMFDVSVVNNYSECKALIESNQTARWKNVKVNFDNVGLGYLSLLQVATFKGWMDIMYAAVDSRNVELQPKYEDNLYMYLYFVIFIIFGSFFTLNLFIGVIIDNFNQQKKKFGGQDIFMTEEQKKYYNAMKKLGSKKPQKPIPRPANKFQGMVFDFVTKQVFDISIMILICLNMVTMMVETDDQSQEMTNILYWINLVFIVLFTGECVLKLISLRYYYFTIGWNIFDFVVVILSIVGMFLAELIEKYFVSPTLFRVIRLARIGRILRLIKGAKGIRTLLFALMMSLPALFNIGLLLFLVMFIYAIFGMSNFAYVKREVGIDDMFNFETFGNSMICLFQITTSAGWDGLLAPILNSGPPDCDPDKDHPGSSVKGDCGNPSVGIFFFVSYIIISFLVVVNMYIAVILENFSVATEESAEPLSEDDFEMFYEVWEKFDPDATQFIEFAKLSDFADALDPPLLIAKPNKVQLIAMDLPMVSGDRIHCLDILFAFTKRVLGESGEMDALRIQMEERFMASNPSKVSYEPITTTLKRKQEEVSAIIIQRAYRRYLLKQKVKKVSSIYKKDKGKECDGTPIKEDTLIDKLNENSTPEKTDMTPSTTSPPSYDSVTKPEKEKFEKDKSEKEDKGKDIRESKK

- IC50 [1]: 0.74 µM
- Ratio IC50 [2]: > 200
SMILES: O=S(=O)(Nc1ncns1)c1cc(F)c(Oc2ccc(Cl)cc2-c2ccc3nccnc3c2)cc1F
- inhibition at 5 µM (hERG (KCNH2)): < 11%
- Ratio IC50 (Homo sapiens): > 2700
- IC50 [3]: > 10 µM

- IC50 [4]: > 10 µM
- IC50 [5]: 3.85 µM
- IC50 [6]: 0.0002 µM
- IC50 [7]: 9.33 µM
- IC50 [8]: 6.38 µM
- IC50 [9]: 0.0008 µM
SMILES: Nc1nc2cc(-c3cc(Cl)ccc3Oc3cc(F)c(S(=O)(=O)Nc4ncns4)cc3F)ccc2[nH]1
- inhibition at 5 µM (hERG (KCNH2)): < 11%
- Ratio IC50 (Homo sapiens): > 12000
- IC50 [3]: > 10 µM

SMILES: O=S(=O)(Nc1ncns1)c1cc(F)c(Oc2ccc(Cl)cc2-c2cnc3n2CCNC3)cc1F
- inhibition at 5 µM (hERG (KCNH2)): < 11%
- IC50 [3]: > 10 µM

SMILES: CNc1noc2ccc(-c3cc(Cl)ccc3Oc3cc(F)c(S(=O)(=O)Nc4ncns4)cc3F)cc12
- inhibition at 5 µM (hERG (KCNH2)): < 11%
- IC50 [3]: 0.23 µM

SMILES: O=S(=O)(Nc1ncns1)c1cc(F)c(Oc2ccc(Cl)cc2-c2ncc3cnccn23)cc1F
- inhibition at 5 µM (hERG (KCNH2)): < 11%

SMILES: Nc1noc2ccc(-c3cc(F)ccc3Oc3cc(F)c(S(=O)(=O)Nc4ncns4)cc3F)cc12
- inhibition at 5 µM (hERG (KCNH2)): < 11%

SMILES: Nc1n[nH]c2ccc(-c3cc(Cl)ccc3Oc3cc(F)c(S(=O)(=O)Nc4ncns4)cc3F)cc12
- inhibition at 5 µM (hERG (KCNH2)): < 11%
- IC50 [3]: > 10 µM

- IC50 [10]: 0.017 µM
SMILES: O=S(=O)(Nc1ncns1)c1cc(F)c(Oc2ccc(Cl)cc2-c2cccc3nccn23)cc1F
- inhibition at 5 µM (hERG (KCNH2)): < 11%
- IC50 [3]: > 10 µM

SMILES: Nc1noc2ccc(-c3ccccc3Oc3cc(F)c(S(=O)(=O)Nc4ncns4)cc3F)cc12
- inhibition at 5 µM (hERG (KCNH2)): < 11%

- Ratio IC50 [2]: > 60
SMILES: Nc1noc2ccc(-c3cc(Cl)ccc3Oc3cc(F)c(S(=O)(=O)Nc4ncns4)cc3F)cc12
- Activity (Rattus norvegicus [11]): inactive
- Activity (Rattus norvegicus [12]): Active
- Activity (Rattus norvegicus [13]): Dose-dependent effect
- Activity (Rattus norvegicus [14]): inactive
- Activity (Mus musculus [15]): Dose-dependent effect
- Activity (Mus musculus [16]): inactive
